Test [1] deals with SISO human cervix cancer cell line. In words: Crystal violet proliferation assay. The test is classed as cell-based. The note with it: Homo sapiens, 37 °C, 96 h, n>4, read-out: Inhibition of cell viability GI50 (CI 95 %). The method, then: GI50 values for 50 % growth inhibition were all in a low micro molar range (Table 1). […] The indole−pentathiepins gave lower GI50 values than the pyrrolo[1,2‐a]quinoxaline derivatives. […] There was also a trend showing that an electron rich substituent in position R^2 increased the antiproliferative effect in SISO cells.
Crystal violet proliferation assay: To measure cell growth inhibition, the crystal violet assay was carried out as previously described.37 Adherent cell lines were seeded out in a 96‐well plate (1000 cells per 200 μL culture medium) and allowed to attach for 24 h. Cells were exposed to nine serial dilutions of compound, added to the medium from 1000‐fold concentrated stock solutions in DMF. For the controls, cells were exposed to 0.1 % DMF alone. After addition of compounds, plates for the detection of the starting point of the proliferation at incubation time zero (t 0) were stopped with glutaraldehyde (see below), washed with Dulbecco's buffer (containing KCl 0.2 g/L, MgSO4 ⋅ 7 H2O 0.1 g/L, Na2HPO4 ⋅ >7 H2O 1.55 g/L, KH2HPO4 0.2 g/L and NaCl 8 g/L in water) and stored at 4 °C until the staining procedure. Treated cells were incubated for 96 h in the incubator, the medium was removed and replaced with 100 μL of 1 % glutaraldehyde in Dulbecco's buffer for 20 min. After washing twice with 150 μL of Dulbecco's buffer, the buffer was removed and replaced with 100 μL of a 0.02 % crystal violet solution dissolved in water for 30 min and subsequently washed in tap water for 15 min. Water was removed and replaced with 100 μL of ethanol (70 % in water) followed by shaking on a 96‐well shaker (MS3 digital, IKA‐Werke, Germany) for 2 h. Optical density was measured with a SpectraMax Plus 383 microtiter plate reader at λ=570 nm (Molecular Devices, USA). The optical density of t 0 plates at the time of treatment were subtracted from optical densities of plates with treated cells after 96 h (T), and the growth inhibition relative to untreated, control cells (C) as described.22 Growth inhibition concentrations at 50 % (GI50) were calculated by determining the inflection point of the sigmoidal log dose‐growth inhibition (%T/C) curves with the GraphPad Prism 6.0 software.

The test system of test [2] is HL-60 cells. In words: Detection of reactive oxygen species (DCF-DA flow cytometry). The note with it: 25 μM, 10 min. The test is classed as cell-based, human. From the text:
(§1) It has long been observed that pentathiepins are able to produce reactive oxygen species outside of cells.16, 17, 20 Whether ROS production can also occur in living cells has not yet been reported. To determine if 4 can produce ROS in HL‐60 and Gumbus cells, the cytosolic ROS detector 2′,7′‐dichlorofluorescin diacetate (DCF−DA) was used. […] Thus, pentathiepins appear capable of generating ROS inside living cells within a very short period of time.
(§2) Detection of reactive oxygen species: To detect cellular reactive oxygen species (ROS) a flow cytometry technique based on the use of the ROS‐sensor 2′,7′‐dichlorofluorescin diacetate (DCF‐DA) was used.38 Briefly, cells were collected in reaction tubes and washed with 500 μL phosphate buffered saline (PBS). The cell pellets were resuspended in 1 mL PBS and stained with 2 μL DCF‐DA stock solution (10 mM in DMSO) for 30 min at 37 °C. Then cells were washed with 500 μL PBS and suspended in 1 mL PBS followed by addition of […] 4 ([…]) to a final concentration of 25 μM. After an incubation period of 10 min cells were washed with PBS, resuspended in 500 μL PBS and analyzed by flow cytometry with a MACSQuant Analyzer 10 (Miltenyi Biotec, Germany) set at λ Ex/Em=488/530 nm.
A general note: Flow cytometry measures light scatter and fluorescence of single cells or particles in a stream.

In test [3] the test system is Gumbus cells. The description is as above. As to conditions: 25 μM, 10 min. The test is classed as cell-based, human.
Excerpt: as §1, §2

Test [4] relates to HL-60 cells. In words: Western blot analysis of PARP cleavage. The test is classed as cell-based, human. The note with it: multiple IC50 concentrations, 6 h. As to the method: (§3) Another method for detecting caspase dependent apoptosis is to measure the cleavage of the enzyme poly‐(ADP‐ribose)‐polymerase (PARP) by western blotting. After an apoptotic stimulus, caspases, e. g. caspase‐3 and caspase‐7, cleave PARP, resulting in a loss of its function to mediate DNA‐repair processes. Cells were incubated with multiple IC50 concentrations of 4 for 6 and 24 h. […] Thus, pentathiepin 4 appears to induce the caspase dependent induction of apoptosis.
(§4) Western blot analysis of PARP: For western blot analysis the Biorad system with “Mini‐Protean® TGX Stain‐Fee™ Gels” and “Trans‐Blot® Turbo™ Transfer Pack Mini” PVDF‐membranes were used (Biorad, Germany). Protein lysates for analysis were prepared by seeding out 10^6 cells into T25 flasks and incubated with 4 in multiple concentrations of the viability IC50 for 6 and 24 h. […] Lysates were centrifuged at 18 000 g for 10 min at 4 °C and protein content was determined by the Bradford method against bovine serum albumin (BSA) as standard. […] Protein bands were detected with Clarity™ Western ECL Substrate (Biorad) and recorded by an Advanced Fluorescence Imager (INTAS, Germany).
(In general: Immunoblotting shows a protein as a band on a membrane.)

Test [5] concerns Gumbus cells. In words: Western blot analysis of PARP cleavage. The test is classed as cell-based, human. As to conditions: multiple IC50 concentrations, 6 h. The method, then:
as §3, §4

This passage reports GI50, ROS formation and PARP cleavage results from publication PMC7496275, “Pentathiepins: A Novel Class of Glutathione Peroxidase 1 Inhibitors that Induce Oxidative Stress, Loss of Mitochondrial Membrane Potential and Apoptosis in Human Cancer Cells” (Chemmedchem, 2020).

Regarding `CCOc1c2c(c3cnc4cc(C)c(C)cc4n13)SSSSS2` [Compound 4], in test [1], the GI50 (in general, the concentration giving 50% growth inhibition) worked out at 8.9 µM. Further, the ROS formation result in the test on HL-60 cells [2] was “rapid but not as intense as with the Gumbus line”; with Gumbus cells [3] it was “significant burst of ROS”. Also, the PARP cleavage result with HL-60 cells [4] and in the test with Gumbus cells [5] was “cleavage of PARP was detectable” in each case.
